Here are results for 13 molecules from patent publication US20130158072A1, “KAPPA OPIOID RECEPTOR BINDING LIGANDS” (Research Triangle Institute, priority 2010, published 2013).

The target of test [1] is T1, cloned human μ-opioid receptor (Homo sapiens, UniProt P35372).
T1 construct: expressed in transfected cells; host or cells: CHO cells
The test can be described thus: Inhibition of DAMGO-stimulated [35S]GTPγS binding. The class given is biochemical. The settings on record: for μ, DAMGO Ke: antagonism of DAMGO-stimulated [35S]GTPγS binding, CHO cells, means ± SE, at least three experiments; for potency at μ receptors compared to 3: compared with 3. For orientation: GTPγS is a poorly hydrolysed GTP analogue; its binding reports G protein activation.
Method: (§1) Test compound assay concentrations ranged from 1-5000 nM, depending on their activity. The Ke values were calculated using the formula: Ke=[L]/DR−1, where [L] is the concentration of test compound and DR is the ratio of agonist EC50 value in the presence or absence of test compound, respectively.

In test [2] the target is T2, cloned human δ-opioid receptor (Homo sapiens, UniProt P41143).
T2 construct: expressed in transfected cells; host or cells: CHO cells
T2 sequence (P41143 whole entry): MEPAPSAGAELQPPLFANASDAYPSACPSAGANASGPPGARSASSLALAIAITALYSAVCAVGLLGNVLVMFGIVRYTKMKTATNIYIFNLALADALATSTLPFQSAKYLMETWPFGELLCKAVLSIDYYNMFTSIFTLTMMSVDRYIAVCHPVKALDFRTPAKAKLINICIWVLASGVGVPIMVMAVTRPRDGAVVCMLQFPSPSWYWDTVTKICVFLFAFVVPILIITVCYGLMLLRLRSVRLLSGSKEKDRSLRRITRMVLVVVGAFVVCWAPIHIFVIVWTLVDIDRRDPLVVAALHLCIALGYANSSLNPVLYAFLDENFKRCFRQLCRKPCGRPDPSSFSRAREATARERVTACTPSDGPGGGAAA
The test can be described thus: Inhibition of DPDPE-stimulated [35S]GTPγS binding. It counts as biochemical. To be noted: for δ, DPDPE Ke: antagonism of DPDPE-stimulated [35S]GTPγS binding, CHO cells, means ± SE, at least three experiments.
Method: as §1

The target in test [3] is cloned human κ-opioid receptor (Homo sapiens, UniProt P41145). The test can be described thus: Inhibition of U69,593-stimulated [35S]GTPγS binding. The settings on record: for change in potency on N-methylation at the tetrahydroisoquinoline nitrogen: 8c: at all receptor subtypes, others: at κ receptors; for κ, U69,593 Ke: antagonism of U69,593-stimulated [35S]GTPγS binding, CHO cells, means ± SE, at least three experiments; for δ/κ / μ/κ: ratio of Ke values; for δ/κ: κ selectivity relative to δ; for μ/κ: κ selectivity relative to μ.
cloned human κ-opioid receptor, sequence (P41145 whole entry): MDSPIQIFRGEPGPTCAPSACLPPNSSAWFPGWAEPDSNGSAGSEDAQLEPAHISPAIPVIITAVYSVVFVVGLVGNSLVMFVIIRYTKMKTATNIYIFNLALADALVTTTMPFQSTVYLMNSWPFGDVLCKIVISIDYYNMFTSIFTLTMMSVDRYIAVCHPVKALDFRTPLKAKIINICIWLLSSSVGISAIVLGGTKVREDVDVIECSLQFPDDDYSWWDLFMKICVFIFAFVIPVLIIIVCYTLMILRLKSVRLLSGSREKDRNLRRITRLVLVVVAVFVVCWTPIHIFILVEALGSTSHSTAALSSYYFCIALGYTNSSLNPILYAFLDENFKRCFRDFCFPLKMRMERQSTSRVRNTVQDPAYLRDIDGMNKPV
Method: as §1

Several values for one entry are separate records, joined by “and”; a condition that tells them apart may be missing. Identical values can stand only once.

T1 sequence (P35372 whole entry): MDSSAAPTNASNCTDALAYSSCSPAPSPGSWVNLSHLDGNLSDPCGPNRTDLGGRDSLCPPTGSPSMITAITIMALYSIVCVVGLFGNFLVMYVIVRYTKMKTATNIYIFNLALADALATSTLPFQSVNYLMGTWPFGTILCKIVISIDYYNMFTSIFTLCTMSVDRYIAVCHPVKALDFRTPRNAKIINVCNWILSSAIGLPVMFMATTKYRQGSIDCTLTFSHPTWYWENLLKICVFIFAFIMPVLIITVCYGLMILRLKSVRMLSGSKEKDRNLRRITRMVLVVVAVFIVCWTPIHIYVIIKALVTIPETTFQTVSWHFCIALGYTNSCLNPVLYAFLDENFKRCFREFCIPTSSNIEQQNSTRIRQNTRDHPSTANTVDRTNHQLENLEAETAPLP

Take `CC(C)[C@@H](CN1CC[C@@](C)(c2cccc(O)c2)[C@@H](C)C1)NC(=O)[C@H]1Cc2ccc(O)cc2CN1C` [Compound 8c]: in test [1], the “μ, DAMGO Ke” value was 210 ± 60 nM. The “δ, DPDPE Ke” value in test [2] was found to be 491 ± 120 nM. In test [3], the “change in potency on N-methylation at the tetrahydroisoquinoline nitrogen” value (“change in potency on N-methylation” below) is “reduction in potency at all receptor subtypes”; the “κ, U69,593 Ke” value is 0.16 nM and 0.16 ± 0.06 nM; the δ/κ worked out at 3070; the μ/κ worked out at 1313.

The molecule `COc1cccc([C@]2(C)CCN(C[C@@H](NC(=O)[C@H]3Cc4ccc(O)cc4CN3)C(C)C)C[C@@H]2C)c1` [Compound 8d, (3R)-7-Hydroxy-N-[(1S)-1-{[(3R,4R)-4-(3-methoxyphenyl)-3,4-dimethylpiperidin-1-yl]methyl}-2-methylpropyl]-1,2,3,4-tetrahydroisoquinoline-3-carboxamide] had a Kb in test [1] of 24 ± 8 nM. In test [2], the Kb is 21.2 ± 5 nM. Further, in test [3], the Kb stood at 0.037 ± 0.003 nM, the δ/κ came out at 573 and the μ/κ turned out to be 649. In addition, the “decrease in potency at the κ receptor relative to 3” value in test [3] (compared with 3) was “two-fold decrease in potency”.

Consider `CC(C)[C@@H](CN1CC[C@@](C)(c2cccc(O)c2)[C@@H](C)C1)NC(=O)[C@@]1(C)Cc2ccc(O)cc2CN1` [Compound 8e, (3R)-7-Hydroxy-N-[(1S)-1-[(3R,4R)-4-(3-hydroxyphenyl)-3,4-dimethylpiperidin-1-yl]methyl}-(2-methylpropyl]-3-methyl-1,2,3,4-tetrahydroisoquinoline-3-carboxamide], for which the “μ, DAMGO Ke” value in test [1] worked out at 3.6 ± 1 nM. For the same molecule, the “δ, DPDPE Ke” value in test [2] was 854 ± 210 nM. In test [3], the “κ, U69,593 Ke” value was 0.03 nM and 0.03 ± 0.008 nM.

For `CC[C@H](C)[C@@H](CN1CC[C@@](C)(c2cccc(OC)c2)[C@@H](C)C1)NC(=O)[C@H]1Cc2ccc(O)cc2CN1` [Compound 8f, (3R)-7-Hydroxy-N-[(1S,2S)-1-{[(3R,4R)-4-(3-methoxyphenyl)-3,4-dimethylpiperidin-1-yl]methyl}-2-methylbutanyl]-1,2,3,4-tetrahydroisoquinoline-3-carboxamide], in test [1], the Kb is 5.1 ± 2 nM and the “potency at μ receptors compared to 3” value is on record as “increased potency”. The Kb in test [3] amounted to 0.96 ± 0.4 nM.

In the case of `COc1ccc2c(c1)CN[C@@](C)(C(=O)N[C@H](CN1CC[C@@](C)(c3cccc(O)c3)[C@@H](C)C1)C(C)C)C2` [Compound 8g, (3R)-7-Methoxy-N-[(1S)-1-[(3R,4R)-4-(3-hydroxyphenyl)-3,4-dimethylpiperidin-1-yl]methyl}-(2-methylpropyl]-3-methyl-1,2,3,4-tetrahydroisoquinoline-3-carboxamide], the “μ, DAMGO Ke” value in test [1] is 3.8 ± 1.1 nM. In test [2], the “δ, DPDPE Ke” value is 36.8 ± 6.9 nM. In addition, in test [3], the “κ, U69,593 Ke” value turned out to be 0.93 ± 0.05 nM; the δ/κ amounted to 40; the μ/κ worked out at 4.

In the case of `COc1cccc([C@]2(C)CCN(C[C@@H](NC(=O)[C@@]3(C)Cc4ccc(O)cc4CN3)C(C)C)C[C@@H]2C)c1` [Compound 8h, (3R)-7-Hydroxy-N-[(1S)-1-{[(3R,4R)-4-(3-methoxyphenyl)-3,4-dimethylpiperidin-1-yl]methyl}-2-methylpropyl]-3-methyl-1,2,3,4-tetrahydroisoquinoline-3-carboxamide], the Kb in test [2] is 2200 ± 900 nM; in test [3] it was 0.26 ± 0.1 nM.

`CC[C@H](C)[C@@H](CN1CC[C@@](C)(c2cccc(O)c2)[C@@H](C)C1)NC(=O)[C@@]1(C)Cc2ccc(O)cc2CN1` [Compound 8i, (3R)-7-Hydroxy-N-[(1S,2S)-1-{[(3R,4R)-4-(3-hydroxyphenyl)-3,4-dimethylpiperidin-1-yl]methyl}-2-methylbutanyl]-3-methyl-1,2,3,4-tetrahydroisoquinoline-3-carboxamide]: in test [1], the Kb stood at 8.7 ± 2.7 nM and the “potency at μ receptors compared to 3” value is reported as “increased potency”. The Kb in test [3] amounted to 0.11 ± 0.01 nM.

Turning to `CC[C@H](C)[C@@H](CN1CC[C@@](C)(c2cccc(O)c2)[C@@H](C)C1)NC(=O)[C@H]1Cc2ccc(O)cc2CN1C` [Compound 8j, (3R)-7-Hydroxy-N-[(1S,2S)-1-{[(3R,4R)-4-(3-hydroxyphenyl)-3,4-dimethylpiperidin-1-yl]methyl}-2-methylbutanyl]-2-methyl-1,2,3,4-tetrahydroisoquinoline-3-carboxamide], in test [1], the Kb amounted to 7.2 ± 1.8 nM and the “potency at μ receptors compared to 3” value is “increased potency”. The same molecule yielded a Kb in test [2] of 132 ± 24 nM. Further, in test [3], the Kb came out at 0.11 ± 0.03 nM, the “change in potency on N-methylation” value was “decreases in potency”, the δ/κ was determined as 1200 and the μ/κ was determined as 66.

Regarding `COc1cccc([C@]2(C)CCN(C[C@@H](NC(=O)[C@H]3Cc4ccc(O)cc4CN3C)C(C)C)C[C@@H]2C)c1` [Compound 8k, (3R)-7-Hydroxy-N-[(1S)-1-{[(3R,4R)-4-(3-methoxyphenyl)-3,4-dimethylpiperidin-1-yl]methyl}-2-methylpropyl]-2-methyl-1,2,3,4-tetrahydroisoquinoline-3-carboxamide], the Kb in test [1] turned out to be 880 ± 220 nM; in test [2], 2300 ± 900 nM; in test [3], 4.3 ± 2.7 nM. The “change in potency on N-methylation” value in test [3] is “decreases in potency”.

In the case of `COc1cccc([C@]2(C)CCN(C[C@@H](NC(=O)[C@@]3(C)Cc4ccc(OC)cc4CN3)C(C)C)C[C@@H]2C)c1` [Compound 8l, (3R)-7-Methoxy-N-[(1S)-1-{[(3R,4R)-4-(3-methoxyphenyl)-3,4-dimethylpiperidin-1-yl]methyl}-2-methylpropyl]-3-methyl-1,2,3,4-tetrahydroisoquinoline-3-carboxamide], the Kb in test [2] is above 10000 nM; in test [3], 15.2 ± 3.7 nM.

For the molecule `CC[C@H](C)[C@@H](CN1CC[C@@](C)(c2cccc(OC)c2)[C@@H](C)C1)NC(=O)[C@@]1(C)Cc2ccc(O)cc2CN1` [Compound 8n, (3R)-7-Hydroxy-N-[(1S,2S)-1-{[(3R,4R)-4-(3-methoxyphenyl)-3,4-dimethylpiperidin-1-yl]methyl}-2-methylbutanyl)-3-methyl-1,2,3,4-tetrahydroisoquinoline-3-carboxamide], the Kb in test [2] was 2100 ± 600 nM; in test [3] it was 0.52 ± 0.2 nM.

Regarding `COc1ccc2c(c1)CN(C)[C@@](C)(C(=O)N[C@H](CN1CC[C@@](C)(c3cccc(O)c3)[C@@H](C)C1)C(C)C)C2` [Compound 8o, (3R)-7-Methoxy-N-[(1S)-1-{[(3R,4R)-4-(3-hydroxyphenyl)-3,4-dimethylpiperidin-1-yl]methyl}-2-methylpropyl]-2,3-dimethyl-1,2,3,4-tetrahydroisoquinoline-3-carboxamide], the Kb was determined as 7 ± 1.4 nM in test [1] and 2.2 ± 0.6 nM in test [3]. Also, the “change in potency on N-methylation” value in test [3] is listed as “decreases in potency”.

As to `CC[C@H](C)[C@@H](CN1CC[C@@](C)(c2cccc(OC)c2)[C@@H](C)C1)NC(=O)[C@H]1Cc2ccc(O)cc2CN1C` [Compound 8p, (3R)-7-Hydroxy-N-[(1S,2S)-1-{[(3R,4R)-4-(3-methoxyphenyl)-3,4-dimethylpiperidin-1-yl]methyl}-2-methylbutanyl]-2-methyl-1,2,3,4-tetrahydroisoquinoline-3-carboxamide], in test [1], the Kb was found to be 360 ± 120 nM. Moreover, in test [2], the Kb is above 10000 nM. For the same molecule, in test [3], the Kb was 2.03 ± 0.03 nM, the “change in potency on N-methylation” value is on record as “decreases in potency” and the μ/κ came out at 180.
